pEC50: −log10 of the molar value. “And” between values parts separate entries of the source, which are not always exact repeats. Identical values can stand only once.
Assays:
OR1A1 = biological target: T1, OR1A1 (Homo sapiens, UniProt Q9P1Q5); assay: Dual-Glo luciferase reporter gene assay, OR1A1 in Hana3A cells; assay type: cell-based; parameters: The open reading frames of ORs were amplified using Phusion polymerase; Rho-tag (first 20 amino acids of human rhodopsin) (N); expressed in transfected cells; host or cells: Hana3A cells (derived from HEK293T), pCI vector; co-transfected with human RTP1S, M3 receptor, CRE-Luc and SV40-RL; conditions: for activation of OR1A1 in dose-responses: Figure 4A; for Bottom / Top / normilazed value = (L-400/R-400) / pEC50 / LogEC50: OR1A1; for Bottom / Top: log(agonist) vs. response (three parameters), normalized (L-400/R-400); for normilazed value = (L-400/R-400) / LogEC50: log[molecule]; for normilazed value = (L-400/R-400): three replicates; for LogEC50: M
T1 sequence (Q9P1Q5 1-309): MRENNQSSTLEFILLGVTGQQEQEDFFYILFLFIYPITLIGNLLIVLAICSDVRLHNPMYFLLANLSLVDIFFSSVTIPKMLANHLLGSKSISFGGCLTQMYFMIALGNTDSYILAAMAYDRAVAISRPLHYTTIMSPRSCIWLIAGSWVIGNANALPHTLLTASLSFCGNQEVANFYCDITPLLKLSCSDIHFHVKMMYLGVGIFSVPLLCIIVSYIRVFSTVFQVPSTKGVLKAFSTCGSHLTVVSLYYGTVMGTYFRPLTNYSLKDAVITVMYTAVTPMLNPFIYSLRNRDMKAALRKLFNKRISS
Protocol: (§1) Hana3A cells were maintained in minimal essential medium containing 10% FBS (vol/vol) with penicillin-streptomycin and amphotericin B (1/200 each vol/vol) at 37 °C and 5% CO2. Hana3A cells are derived from HEK293T [57] and are optimized for OR studies as shown in several studies, compared to earlier OR expression in Sf9 insect cells in Gat et al., and in Xenopus oocytes, COS-7, PC12h and CHO-K1 cells in Katada et al..
(§2) The Dual-Glo luciferase assay system (Promega, Madison, WI, USA) was used to evaluate the functionality of wild-type OR1A1 and OR2W1 in an in vitro system. The open reading frames of ORs were amplified using Phusion polymerase (Thermo Fisher Scientific, Waltham, MA, USA). Amplified fragments were cloned into pCI expression vector (Promega, Madison, WI, USA) containing the sequence encoding the first 20 amino acids of human rhodopsin (Rho-tag) at N-terminal. Hana3A cells have been cultured and plated the day before transfection with 6 mL at 1/10 of a 100% confluence 100 mm plate into 96-well plates coated with poly D-lysine. After overnight incubation, the required genes were transfected using, for each plate, 5 ng SV40-RL, 10 ng CRE-Luc, 5 ng human RTP1S [72], 2.5 ng M3 receptor [73] and 5 ng of receptor (OR1A1, OR2W1 or empty vector Rho-pCI) plasmid. After around 18 h of transfection, cells were stimulated during 3.5 h by 25 µL of odorant diluted in CD293 + 1% glutamine + 30 µM CuCl2. Odorants were obtained from Sigma Aldrich (St. Louis, MO, USA) and diluted at 1 M concentration in DMSO as stock solutions. […] The luminescence of Firefly (Luc) and Renilla (Rluc) luciferase, were then sequentially monitored by injecting the corresponding substrate following the supplier’s protocol. The activity in each well was normalized as (Luc-400)/(Rluc-400). The response of the receptor was also normalized to its basal activity as (NLX/NL0)-1 where NL0 is the normalized luminescence value at 0 µM of odorant and NLX the value at X µM. […] Raw results were first analyzed with Excel (Microsoft Corporation, Albuquerque, NM, USA) and dose response curves, max efficacy and EC50 have been determined with GraphPrism 6 software (GraphPad Software, La Jolla, CA, USA). Areas under the curves (AUC) were calculated in Excel by summing all the OR responses at different concentrations for each odorant.

OR2W1 = biological target: T2, OR2W1 (Homo sapiens, UniProt Q9Y3N9); assay: Dual-Glo luciferase reporter gene assay, OR2W1 in Hana3A cells; assay type: cell-based; parameters: The open reading frames of ORs were amplified using Phusion polymerase; Rho-tag (first 20 amino acids of human rhodopsin) (N); expressed in transfected cells; host or cells: Hana3A cells (derived from HEK293T), pCI vector; co-transfected with human RTP1S, M3 receptor, CRE-Luc and SV40-RL; conditions: for normilazed value = (L-400/R-400): three replicates
T2 sequence (Q9Y3N9 1-320): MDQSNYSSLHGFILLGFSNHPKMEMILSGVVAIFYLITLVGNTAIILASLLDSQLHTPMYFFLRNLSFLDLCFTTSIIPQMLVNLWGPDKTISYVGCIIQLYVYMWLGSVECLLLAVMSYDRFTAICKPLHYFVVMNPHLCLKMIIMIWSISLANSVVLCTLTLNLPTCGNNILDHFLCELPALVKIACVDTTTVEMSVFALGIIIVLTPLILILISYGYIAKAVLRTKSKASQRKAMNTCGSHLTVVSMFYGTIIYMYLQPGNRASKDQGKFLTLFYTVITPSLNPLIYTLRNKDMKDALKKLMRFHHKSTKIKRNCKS
Protocol: as §1, §2

[1] = three-parameter fit, 95% CI (profile likelihood)
[2] = OR2W1, log(agonist) vs. response (three parameters), 95% CI (profile likelihood), normalized (L-400/R-400)

Row | Structure (SMILES) | activation of OR1A1 in dose-responses (OR1A1) | Bottom (OR1A1; 95% CI (profile likelihood)) | Top (OR1A1; 95% CI (profile likelihood)) | normilazed value = (L-400/R-400) (OR1A1; M = -3.5) | normilazed value = (L-400/R-400) (OR1A1; M = -3.75) | normilazed value = (L-400/R-400) (OR1A1; M = -4) | normilazed value = (L-400/R-400) (OR1A1; M = -4.25) | normilazed value = (L-400/R-400) (OR1A1; M = -4.5) | normilazed value = (L-400/R-400) (OR1A1; M = -4.75) | normilazed value = (L-400/R-400) (OR1A1; M = -5) | normilazed value = (L-400/R-400) (OR1A1; M = -5.25) | normilazed value = (L-400/R-400) (OR1A1; M = -5.5) | normilazed value = (L-400/R-400) (OR1A1; M = -5.75) | normilazed value = (L-400/R-400) (OR1A1; M = -6) | pEC50 (OR1A1; [1]) | LogEC50 (OR1A1; [1]) | pEC50 (OR1A1; 95% CI) | other results
1 | C=C(C)[C@H]1CC=C(C)CC1 [Dipentene] | weak activator | 0.9206 to 2.078 | 11.22 to 15.68 | 15.0728 and 8.79 and 8.6943 | 10.4582 and 8.9424 and 9.316 | 8.181 and 7.514 and 8.062 | 7.841 and 5.647 and 6.278 | 5.494 and 4.914 and 4.401 | 3.7707 and 3.641 and 3.368 | 2.7632 and 2.301 and 2.9635 | 2.721 and 2.59 and 2.766 | 2.326 and 2.0399 and 1.767 | 1.87 and 1.732 and 1.479 | 1.6 and 1.531 and 1.2039 | 3.87 to 4.35 | -4.348 to -3.874 | – | –
2 | COC(=O)Cc1ccccc1C [Methyl 2-(2-methylphenyl)acetate] | able to activate OR1A1 | 0.03511 to 1.535 | 11.79 to 13.66 | 10.0524 and 12.0337 and 11.3132 | 12.5278 and 11.5014 and 12.1842 | 10.2366 and 11.6676 and 13.2311 | 7.699 and 8.952 and 12.582 | 7.699 and 8.491 and 8.724 | 5.333 and 7.756 and 8.263 | 4.586 and 4.422 and 5.725 | 3.435 and 3.266 and 4.088 | 2.183 and 2.432 and 2.624 | 1.457 and 1.905 and 2.354 | 1.1663 and 1.179 and 1.777 | 4.60 to 4.91 | -4.914 to -4.603 | 4.60 to 4.91 | –
3 | CCOc1ccc2ccccc2c1 [2-Ethoxynaphthalene] | – | – | – | – | – | – | – | – | – | – | – | – | – | – | – | – | – | activation of OR2W1 in dose-responses (OR2W1; Figure 4B): activated OR2W1 in a dose-response manner; potency relative to the strongest OR2W1 agonist of Bushdid et al. (OR2W1; OR2W1, comparison with ref 14): two times more potent; Bottom (OR2W1; [2]): 9.687 to 19.33; Top (OR2W1; [2]): 32.32 to 36.67; normilazed value = (L-400/R-400) (OR2W1; OR2W1, log[molecule], M = -3.5): 30.4896 and 23.1676 and 21.7127; normilazed value = (L-400/R-400) (OR2W1; OR2W1, log[molecule], M = -3.75): 33.5459 and 34.0167 and 35.7983; normilazed value = (L-400/R-400) (OR2W1; OR2W1, log[molecule], M = -4): 29.5332 and 32.1424 and 36.1752; normilazed value = (L-400/R-400) (OR2W1; OR2W1, log[molecule], M = -4.25): 38.6596 and 38.9119 and 38.3122; normilazed value = (L-400/R-400) (OR2W1; OR2W1, log[molecule], M = -4.5): 28.5017 and 40.4493 and 38.4842; normilazed value = (L-400/R-400) (OR2W1; OR2W1, log[molecule], M = -4.75): 39.1645 and 34.3635 and 36.5051; normilazed value = (L-400/R-400) (OR2W1; OR2W1, log[molecule], M = -5): 30.1654 and 33.9031 and 33.7738; normilazed value = (L-400/R-400) (OR2W1; OR2W1, log[molecule], M = -5.25): 31.8777 and 31.6329 and 33.9788; normilazed value = (L-400/R-400) (OR2W1; OR2W1, log[molecule], M = -5.5): 30.0044 and 26.9494 and 25.4775; normilazed value = (L-400/R-400) (OR2W1; OR2W1, log[molecule], M = -5.75): 22.1602 and 26.5902 and 25.5852; normilazed value = (L-400/R-400) (OR2W1; OR2W1, log[molecule], M = -6): 23.2783 and 19.1056 and 20.6534; pEC50 (OR2W1; OR2W1, three-parameter fit, 95% CI (profile likelihood)): 5.52 to 6.18; LogEC50 (OR2W1; OR2W1, three-parameter fit, 95% CI (profile likelihood), log[molecule], M): -6.181 to -5.515
4 | c1cnc2c(c1)ccc1cccnc12 [1,10-Phenanthroline] | did not activate OR1A1 | 1.108 to 2.224 | – | -5 and -0.03226 and 0.3636 | 0.5532 and 0.08791 and 0.1429 | -3.909 and 0.2121 and 0.03846 | 1.0814 and 2.077 and 1.521 | 1.468 and 1.358 and 1.008 | 0.8876 and 1.015 and 1.576 | 1.356 and 1.5085 and 1.392 | 1.691 and 1.671 and 2.1214 | 1.201 and 1.5718 and 1.847 | 1.3268 and 1.745 and 1.5675 | 1.452 and 1.389 and 1.692 | – | – | – | –
5 | CCOC(=O)Cc1cccc(Br)c1 [Ethyl 2-(3-bromophenyl)acetate] | able to activate OR1A1 | 0.4401 to 2.007 | 11.66 to 13.55 | 9.12 and 11.0639 and 10.393 | 11.9065 and 11.6251 and 11.7476 | 13.3839 and 12.372 and 11.9409 | 8.912 and 11.2901 and 12.3912 | 7.943 and 8.382 and 10.0109 | 5.611 and 6.9779 and 6.123 | 5.045 and 5.149 and 4.806 | 3.622 and 3.689 and 4.46 | 2.564 and 3.159 and 3.452 | 2.1766 and 2.696 and 2.931 | 1.855 and 2.338 and 2.234 | 4.61 to 4.94 | -4.940 to -4.613 | 4.61 to 4.94 | –

— article PMC8583936, “Machine Learning Assisted Approach for Finding Novel High Activity Agonists of Human Ectopic Olfactory Receptors” (International Journal of Molecular Sciences, 2021)
